Results published in paper PMC4601772, “Investigating Apoptozole as a Chemical Probe for HSP70 Inhibition” (PLoS ONE, 2015).

How the values were obtained:
human HSP72 [1] = target: T1, human HSP72 (Homo sapiens, UniProt P0DMV8); assay: SPR Procedure A, biotinylated apoptozole 4 on neutravidin chip, human HSP72; assay type: binding; details: human HSP72 31–500 nM, control subtracted
T1 construct: 6xHis (N); human rhinovirus 3C protease cleavage site (N); made in house; host or cells: E. coli BL21-AI
Description: (§1) SPR analysis was performed on a Biacore T200 (GE Healthcare) at 25°C at a flow rate of 30 μL/min. The running buffer contained 1 x PBS and was prepared from 10 x concentrated PBS (GE Healthcare) on the day of use. Series S Sensor Chip CM5 was purchased from GE Healthcare, stored at […] and brought to room temperature prior to use.
(§2) The sensor chip was activated by injection of a 1:1 mixture of 500 mM NHS and 200 mM EDC for 420 seconds. Neutravidin (50 μg/mL in 10 mM sodium acetate buffer, pH 5.5) was injected across the chip surface for 60 seconds, followed by injection of 1 mM ethanolamine (pH 8.5) for 420 seconds. Biotinylated-apoptozole 4 (100 μM in 1:1 DMSO/PBS) was injected over the chip surface for 420 seconds. Human and rat HSP72 (500 nM in PBS) were injected at concentrations of 31–500 nM, injection time: 60 seconds, dissociation time: 60 seconds. The control lane was subjected to the conditions described above but derivatization with biotinylated apoptozole 4 was omitted.

rat HSP72 [2] = target: T2, rat HSP72 (Rattus norvegicus, UniProt P0DMW0); assay: SPR Procedure A, biotinylated apoptozole 4 on neutravidin chip, rat HSP72; assay type: binding; details: rat HSP72 31–500 nM, control subtracted
T2 construct: purchased Enzo Life Sciences
Description: as §1, §2

human HSC70 = target: T3, human HSC70 (Homo sapiens, UniProt P11142); assay: Fluorescence polarisation KD determination of probes, HSC70; assay type: binding; details: single determination
T3 construct: purchased Abcam
Description: (§3) Unless otherwise stated the aqueous assay buffer contained 50 mM TRIS base pH 7.4, 150 mM NaCl, 6 mM MgCl2, 1 mM DTT, 0.1% (wt/wt) CHAPS. The assay was conducted using 384 Plus F ProxiPlates (PerkinElmer) with a final assay volume of 10 μL. Plates were centrifuged at 1000 rpm for 1 minute prior to incubation and read using an 2103 Envision Multilable Plate Reader. Excitation and emission wavelengths used for green probes were 480 nm and 535 nm, respectively. Excitation and emission wavelengths used for red probes were 620 nm and 688 nm, respectively. Fluorescence polarisation was measured in units of millipolarization (mP). All experiments were performed in triplicate, except for experiments with ATP-Cy5 and apoptozole-Cy5, which were performed in duplicate. Data were plotted and analyzed using GraphPad Prism 6, graphical data represents the geometric mean ± standard error of the mean for a single representative experiment.
(§4) To each well, 5 μL of probe molecule (20 nM in assay buffer) and increasing concentrations of HSP70 protein (5 μL, two-fold dilution series) were added. Fluorescence polarisation values for tracer control wells (10 nM probe in assay buffer only) were subtracted from each data point prior to data analysis. KD determination was performed using non-linear regression analysis (GraphPad Prism 6, one site–specific binding model).

human HSP72 [3] = target: T1, human HSP72; assay: Fluorescence polarisation KD determination of probes, HSP72; assay type: binding; details: for pKD: human HSP72, geometric mean ± SEM, 3 measurements; for Kd: human HSP72 titrated against fixed probe concentration, geometric mean of 3
Description: as §3, §4

human HSP72 [4] = target: T1, human HSP72; assay: SPR Procedure B, apoptozole derivative 6 bound directly to CM5 chip; assay type: binding; details: three immobilisation levels, HSP72 up to 32 μM
Description: as §1
The sensor chip was activated by injection of a 1:1 mixture of 500 mM NHS and 200 mM EDC for 420 seconds. Apoptozole derivative 6 (100 μM in 1:1 DMSO/PBS) was injected over the chip surface, to give immobilization levels of approximately 4000, 8000 and 12000 RU. Ethanolamine (1 mM, pH 8.5) was then injected over the chip surface for 420 seconds. Human HSP72 (32 μM in PBS) was injected at concentrations of 62 nM–32 μM, injection time: 60 seconds, dissociation time: 60 seconds. The control lane was subjected to the conditions described above but derivatization with apoptozole derivative 6 was omitted.

human HSP72 [5] = target: T1, human HSP72; assay: Fluorescence polarisation competitive binding with ATP-FAM probe; details: for IC50: displacement of ATP-FAM (10 nM) from human HSP72, geometric mean of 3; for pIC50: displacement of ATP-FAM from human HSP72, geometric mean ± SEM, 3 measurements
Description: as §3
Compounds (0.2 μL at 50 x screening concentration in DMSO) were dispensed using an ECHO 550 Liquid Handler (labcyte Inc.). To the corresponding wells was added, 5 μL of probe molecule (20 nM in assay buffer) and 5 μL of protein (two times their final concentration in assay buffer) to give a 50% bound fraction.[30] Tracer controls (10 nM probe molecule only) and bound tracer controls (10 nM probe in the presence of appropriate protein concentration) were included on each assay plate. IC50 determination was performed using non-linear least squares curve fitting (GraphPad Prism 6, log(inhibitor) vs. response—variable slope (four parameters)).

[6] = Dynamic light scattering (aggregation under aqueous conditions); assay type: physicochemical
Description: Apoptozole and VER-155008 (10 mM in DMSO) were diluted in 1 x PBS buffer with a final DMSO concentration of 2%, ± 0.01% v/v Triton X-100. Measurements were performed using a Protein Solutions DynaPro (Wyatt Technology) at room temperature. Data were acquired and processed by the software Dynamics, version 6.10 and calculation of particle radius performed by the cumulant analysis tool. The detector angle was 90°, the laser power was set to 30% and the integration time was 150 s. Each radius value presents three independent measurements, values are quotes as arithmetic mean ± standard error of the mean.

HSP70 = test system: HSP70; design: method as in PMID 24265689; details: cited from earlier work
SK-OV-3 = test system: SK-OV-3; design: method as in PMID 18729127; details: cited from earlier work
A549 = test system: A549; design: method as in PMID 18729127; details: cited from earlier work
bovine HSC70 = target: bovine HSC70; design: method as in PMID 18729127; details: SPR; cited from earlier work
HCT-15 = test system: HCT-15; design: method as in PMID 18729127; details: cited from earlier work
rat HSP72 [7] = target: T2, rat HSP72; design: method as in PMID 18729127; details: SPR; cited from earlier work
[8] = 10 μM, without Triton X-100, PBS 2% DMSO

T1 sequence (P0DMV8 whole entry): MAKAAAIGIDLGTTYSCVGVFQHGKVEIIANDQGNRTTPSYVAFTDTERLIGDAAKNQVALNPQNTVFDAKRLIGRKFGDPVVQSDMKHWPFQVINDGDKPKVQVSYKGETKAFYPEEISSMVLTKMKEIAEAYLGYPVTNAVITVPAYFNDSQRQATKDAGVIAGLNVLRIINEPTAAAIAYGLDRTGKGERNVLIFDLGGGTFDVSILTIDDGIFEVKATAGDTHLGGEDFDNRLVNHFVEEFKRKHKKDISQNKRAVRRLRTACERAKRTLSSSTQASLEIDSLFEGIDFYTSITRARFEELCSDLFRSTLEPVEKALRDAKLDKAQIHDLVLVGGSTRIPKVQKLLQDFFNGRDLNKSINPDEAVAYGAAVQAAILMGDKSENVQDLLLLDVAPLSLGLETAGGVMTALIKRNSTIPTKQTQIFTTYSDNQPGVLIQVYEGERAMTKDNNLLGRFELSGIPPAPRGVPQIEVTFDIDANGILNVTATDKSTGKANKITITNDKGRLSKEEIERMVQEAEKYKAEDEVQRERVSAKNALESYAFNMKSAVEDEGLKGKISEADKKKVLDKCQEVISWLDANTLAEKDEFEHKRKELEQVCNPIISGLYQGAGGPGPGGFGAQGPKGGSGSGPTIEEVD
T2 sequence (P0DMW0 2-641 limits assumed): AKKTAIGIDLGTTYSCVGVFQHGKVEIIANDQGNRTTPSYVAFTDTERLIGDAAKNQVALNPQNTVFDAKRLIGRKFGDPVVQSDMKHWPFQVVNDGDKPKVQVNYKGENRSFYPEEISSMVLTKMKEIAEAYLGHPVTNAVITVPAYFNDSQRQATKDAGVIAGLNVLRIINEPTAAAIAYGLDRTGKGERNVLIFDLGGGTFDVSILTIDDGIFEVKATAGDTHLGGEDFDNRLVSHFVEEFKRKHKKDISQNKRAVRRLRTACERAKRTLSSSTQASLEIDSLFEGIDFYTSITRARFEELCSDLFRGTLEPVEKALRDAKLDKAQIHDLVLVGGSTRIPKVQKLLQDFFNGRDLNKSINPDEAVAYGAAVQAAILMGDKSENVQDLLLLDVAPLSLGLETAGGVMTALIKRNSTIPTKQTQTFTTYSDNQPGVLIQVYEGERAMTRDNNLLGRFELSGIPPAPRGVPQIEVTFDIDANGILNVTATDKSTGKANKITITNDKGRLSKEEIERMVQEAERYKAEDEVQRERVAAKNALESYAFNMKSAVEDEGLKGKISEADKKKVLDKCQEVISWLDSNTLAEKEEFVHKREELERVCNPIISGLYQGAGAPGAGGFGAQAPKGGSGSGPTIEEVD
T3 sequence (P11142 whole entry): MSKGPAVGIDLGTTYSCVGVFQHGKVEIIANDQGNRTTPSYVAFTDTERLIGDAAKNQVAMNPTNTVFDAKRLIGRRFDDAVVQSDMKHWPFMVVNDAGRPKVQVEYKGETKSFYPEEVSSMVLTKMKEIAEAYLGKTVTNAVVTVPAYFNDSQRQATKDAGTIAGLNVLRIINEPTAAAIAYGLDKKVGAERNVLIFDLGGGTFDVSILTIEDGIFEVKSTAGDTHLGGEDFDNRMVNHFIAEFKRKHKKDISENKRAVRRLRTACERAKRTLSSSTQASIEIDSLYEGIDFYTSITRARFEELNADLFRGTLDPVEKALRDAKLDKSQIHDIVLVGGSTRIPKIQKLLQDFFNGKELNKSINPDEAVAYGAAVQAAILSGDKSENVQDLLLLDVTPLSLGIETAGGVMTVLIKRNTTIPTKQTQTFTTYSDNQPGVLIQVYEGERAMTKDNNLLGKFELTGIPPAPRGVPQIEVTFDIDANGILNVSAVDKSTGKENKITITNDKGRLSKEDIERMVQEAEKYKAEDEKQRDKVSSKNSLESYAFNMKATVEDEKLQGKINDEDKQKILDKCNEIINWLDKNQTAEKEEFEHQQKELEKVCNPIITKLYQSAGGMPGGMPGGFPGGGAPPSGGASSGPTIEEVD

Which “Binding interaction (SPR)” value (human HSP72 [1]) does the source give for `COc1ccc(-c2nc(-c3cc(C(F)(F)F)cc(C(F)(F)F)c3)n(Cc3ccc(C(=O)NCCOCCOCCNC(=O)CCC(=O)NCCOCCOCCNC(=O)CCCC[C@@H]4SC[C@@H]5NC(=O)N[C@@H]54)cc3)c2-c2ccc(OC)cc2)cc1` [compound 4, N^1-(2-(2-(2-(4-((2-(3,5-Bis(trifluoromethyl)phenyl)-4,5-bis(4-methoxyphenyl)-1H-imidazol-1-yl)methyl)benzamido)ethoxy)ethoxy)ethyl)-N^4-(2-(2-(2-(5-((3aS,4S,6aR)-2-oxohexahydro-1H-thieno[3,4-d]imidazol-4-yl)pentanamido)ethoxy)ethoxy)ethyl)succinamide] here?
The value was “no evidence of binding interactions”.

What about the “Binding interaction (SPR)” value (rat HSP72 [2]) of the same compound?
The value was “no evidence of binding interactions”.

What does the source list for N^6-(6-Amino)hexyl-ATP-6-FAM [ATP-FAM]?
Kd (human HSC70): 0.97 µM; pKD (human HSP72 [3]): 6.50 ± 0.04; Kd (human HSP72 [3]): 0.32 µM

For `COc1ccc(-c2nc(-c3cc(C(F)(F)F)cc(C(F)(F)F)c3)n(Cc3ccc(C(=O)NCCOCCOCCNC(=O)CCC(=O)NCCOCCOCCN)cc3)c2-c2ccc(OC)cc2)cc1` [compound 6, N^1-(2-(2-(2-Aminoethoxy)ethoxy)ethyl)-N^4-(2-(2-(2-(4-((2-(3,5-bis(trifluoromethyl)phenyl)-4,5-bis(4-methoxyphenyl)-1H-imidazol-1-yl)methyl)benzamido)ethoxy)ethoxy)ethyl)succinamide], which “Binding interaction (SPR)” value (human HSP72 [4]) is on record?
Its value is “no binding interactions were observed”.

With `N#Cc1ccc(COC[C@H]2O[C@@H](n3c(NCc4ccc(Cl)c(Cl)c4)nc4c(N)ncnc43)[C@H](O)[C@@H]2O)cc1` [VER-155008] as the compound, how does the IC50 (human HSP72 [5]) read?
Its IC50 is 0.49 µM.

What about the pIC50 (human HSP72 [5]) of the same compound?
Its pIC50 is 6.31 ± 0.06.

What about the Aggregate formation ([6]; 10 μM) of the same compound?
The Aggregate formation was “no evidence of aggregate formation”.

What about the Intensity ([6]; 10 μM, with 0.01% Triton X-100) of the same compound?
Its Intensity is 318.2 ± 61.3 kcps.

What about the Radius ([6]; 10 μM, with 0.01% Triton X-100) of the same compound?
Its Radius is 101.1 ± 9.0 nm.

And the Intensity ([6]; 10 μM, without Triton X-100)?
The Intensity was 63.2 ± 5.8 kcps.

And the Radius [6, 8]?
Its Radius is 88.5 ± 8.3 nm.

For `Nc1ncnc2c1ncn2[C@@H]1O[C@H](COP(=O)(O)OP(=O)(O)O)[C@@H](O)[C@H]1O` [ADP], which IC50 (human HSP72 [5]) is on record?
The IC50 was 0.67 µM.

What about the pIC50 (human HSP72 [5]) of the same compound?
Its pIC50 is 6.17 ± 0.11.

Which results are given for `Nc1ncnc2c1ncn2[C@@H]1O[C@H](COP(=O)(O)OP(=O)(O)OP(=O)(O)O)[C@@H](O)[C@H]1O` [ATP]?
IC50 (human HSP72 [5]): 1.2 µM; pIC50 (human HSP72 [5]): 5.94 ± 0.05

Which “Mode of binding to HSP70” value (HSP70) does the source give for pifithrin-μ here?
Its value is “unspecific, detergent-like way”.

Which results are given for `COc1ccc(-c2nc(-c3cc(C(F)(F)F)cc(C(F)(F)F)c3)n(Cc3ccc(C(N)=O)cc3)c2-c2ccc(OC)cc2)cc1` [apoptozole]?
GI50 (SK-OV-3): 0.22 µM; ATP-competitive binding (displacement of ATP-FAM probe) (human HSP72 [5]; concentrations up to 80 μM): no displacement of the ATP-FAM probe observed; GI50 (A549): 0.13 µM; Kd (bovine HSC70): 0.21 µM; Intensity ([6]; 1 μM, without Triton X-100): 132.6 ± 39.7 kcps; Radius ([6]; 1 μM, without Triton X-100): 89.3 ± 5.8 nm; Intensity ([6]; 5 μM, without Triton X-100): 1047.5 ± 183.1 kcps; Radius ([6]; 5 μM, without Triton X-100): 454.4 ± 36.4 nm; Intensity ([6]; 10 μM, with 0.01% Triton X-100): 2350.0 ± 173.1 kcps; Radius ([6]; 10 μM, with 0.01% Triton X-100): 86.5 ± 2.1 nm; Intensity ([6]; 10 μM, without Triton X-100): 1441.1 ± 186.5 kcps; Radius [6, 8]: 521.5 ± 30.9 nm; Concentration at which large colloidal aggregates form ([6]; aqueous conditions): ≥ 5 µM; Particle radius ([6]; concentrations ≥ 5 μM, without detergent): > 450 nm; GI50 (HCT-15): 0.25 µM; Kd (rat HSP72 [7]): 0.14 µM

With N^6-(6-Amino)hexyl-ATP-Cy5 as the compound, how does the pKD (human HSP72 [3]) read?
The pKD was 5.95 ± 0.02.

What about the Kd (human HSP72 [3]) of the same compound?
Its Kd is 1.1 µM.
